Experimental findings from article PMC8899614, “Triterpenoid Saponins From the Fruit of Acanthopanax senticosus (Rupr. & Maxim.) Harms” (Frontiers in Chemistry, 2022) are described below.

Where two headings read alike, the source gives them in different places.

In series [1] the test system is NO production in LPS-induced BV2 microglia. Put plainly: NO production inhibition in LPS-induced BV2 microglia (Griess reaction). The class given is cell-based. The settings on record: for IC50: read-out: Inhibitory effects on NO in LPS-induced BV-2 cells, IC50; for Inhibitory effect on neuroinflammation (in words): LPS-induced BV2 microglia neuroinflammation model. As to the method:
The BV2 microglia cells were plated into a 96-well plate. After adding LPS (1 μg/ml) to each well for 12 h, it was treated with or without compounds of various concentrations (0, 100, 200, 300, 400, and 600 μM) for 12 h. The NO production in the supernatant was measured by the Griess reaction. The absorbance at 570 nm was measured using a microplate reader. The NO concentration and the inhibitory rate were calculated through a calibration curve. Quercetin was used as the positive control. Experiments were repeated three times.
(In general: The Griess reaction detects nitrite, a stable product of nitric oxide.)

In another series the test system is BV2 microglia. Put plainly: Cytotoxicity on BV2 microglia by CCK-8 assay. The note with it: read-out: Cytotoxic activities on BV2 cells, IC50; BV2 cells, 24 h, CCK-8, OD 450 nm, repeated three times. Background: Tetrazolium dyes change colour on reduction, which living cells bring about.
The nature of series [2]: Cytotoxicity on BV2 microglia by CCK-8 assay. The settings on record: mouse, BV2 microglia cells.
Method: A drug-containing medium (0, 50, 100, 200, 400, and 600 μM) was added to each well of the administration group, and an equal volume of medium was also added to the blank group, and they were incubate at 37°C and 5% CO2 for 24 h. After the culture, 10 μl of CCK-8 was added to each well and incubated for 1–4 h at 37°C and 5% CO2. The absorbance (OD) value of each well at 450 nm was detected with a microplate reader, repeating three times, and its IC50 value was calculated.
[3] abbreviates: LPS 1 μg/ml, Griess reaction, n = 3, x ± s, IC50 > 100 μM deemed inactive.

Take “3-O-6′-O-methyl-β-D-glucuronopy-ranoside of gypsogenin [Compound 15]”: the figures for the IC50 (in series [1] (setting [3]); in the series on BV2 microglia) were above 100 µM and 157 ± 11 µM, respectively. For “3-O-α-arabinopyranosyl-(1→2)-β-glucopyranoside-30-norolean-12,20(29)-dien-28-oic acid [Compound 28]”, in that order: above 100 µM and 565 ± 48 µM.

On to “3-O-α-rhamnopyranose- (1→2)-α-arabinopyranosyl-29-hydroxy-olean-12-en-28-oic acid [Compound 17]”, for which the IC50 is above 100 µM in series [1] (setting [3]) and 235 ± 21.1 µM with BV2 microglia. “3-O-β-D-(6′-O-methyl-glucuronopyranosyl) oleanolic acid [Compound 16]”: in series [1], the “Inhibitory effect on neuroinflammation (in words)” value (“Inhibitory effect” below) is given as “moderate inhibitory effects on neuroinflammation”. In addition, the IC50 with BV2 microglia turned out to be 102 ± 9.77 µM. The matching figures for “3-O-β-D-glucuronopyranosyl-3β,16α-dihydroxyolean-12-en-28-oic acid [Compound 10]”: “moderate inhibitory effects on neuroinflammation” and 215 ± 20.2 µM. Take “3-[(O-β-D-glucopyranosyl-(1→3)-α-L-arabinopyranosyl)oxy]-30- noroleana-12,20(29)-dien-28-oic acid [Compound 29]”: the concentration for half-maximal inhibition (IC50) in series [1] (setting [3]) was above 100 µM; in the series on BV2 microglia, 127 ± 10.6 µM. As to `CC1(CO)CCC2(C(=O)O)CCC3(C)C(=CCC4C5(C)CCC(OC6OCC(O)C(OC7OC(CO)C(O)C(O)C7O)C6O)C(C)(C)C5CCC43C)C2C1` (stereo not drawn) [Compound 1, 3-O-β-glucopyranosyl-(1→3)-β-arabinopyranosyl-29-hydroxy-olean-12-en-28-oic acid], the IC50 in series [1] (Mus musculus, BV-2) was above 100 µM. Besides, the IC50 at 24 h in series [2] worked out at 143 ± 10.9 µM. `CCOC(=O)C1OC(OC2CCC3(C)C(CCC4(C)C3CC=C3C5CC(C)(C)CCC5(C(=O)OC5OC(CO)C(O)C(O)C5O)CCC34C)C2(C)CO)C(O)C(O)C1O` [Compound 2, 3-O-β-D-6′-ethyl-glucuronopyranosyl-23-hydroxy-olean-12-en-28-β-D-glucopyranosyl]: in series [1] (Mus musculus, BV-2), the IC50 is above 100 µM. The compound further came in with an IC50 at 24 h in series [2] of 157 ± 12.7 µM.

As for `CC1OC(OC2C(OC3CCC4(C)C(CCC5(C)C4CC=C4C6CC(C)(O)CCC6(C(=O)O)CCC45C)C3(C)C)OCC(O)C2O)C(O)C(O)C1O` [Compound 3, 3β-[(α-L-rhamnopyranosyl-(1→2)-α-L-arabinopyranosyl)oxy]-20α,30-dihydroxy-norolean-12-en-28-oic acid], the IC50 in series [1] (Mus musculus, BV-2) is above 100 µM. This compound showed a concentration for half-maximal inhibition (IC50) at 24 h in series [2] of 150 ± 13.6 µM.

As for `CC1(C(=O)O)CCC2(C(=O)O)CCC3(C)C(=CCC4C5(C)CCC(OC6OCC(O)C(O)C6OC6OC(CO)C(O)C(O)C6O)C(C)(C)C5CCC43C)C2C1` [Compound 4, 3β-[(O-β-D-glucopyranosyl-(1→2)-α-L-arabinopyranosyl)oxy]olean12-ene-28,29-dioic acid], in series [1] (Mus musculus, BV-2), the IC50 is above 100 µM. This compound also came in with an IC50 at 24 h in series [2] of 246 ± 21.2 µM. For the compound `COC(=O)C1OC(OC2CCC3(C)C(CCC4(C)C3CCC3C5=CC(C)(C)CCC5(C(=O)O)CCC34C)C2(C)CO)C(O)C(O)C1O` [Compound 5, 3β,23-dihydroxyolean-18-en-28-oic acid 3-O-β-D-glucuronopyranoside-6′-O-methyl ester], the “Inhibitory effect” value in series [1] is listed as “moderate inhibitory effects on neuroinflammation”. In addition, in series [1] (Mus musculus, BV-2), the IC50 was below 100 µM. In addition, the concentration for half-maximal inhibition (IC50) at 24 h in series [2] was 236 ± 20.2 µM. Take `CC1(C)CC[C@]2(C(=O)O)CC[C@]3(C)C(=CC[C@@H]4[C@@]5(C)CC[C@H](O[C@@H]6OC[C@H](O)[C@H](O)[C@H]6O)[C@@](C)(CO)[C@@H]5CC[C@]43C)[C@@H]2C1` [Compound 7, hederagenin glycosides 3-O-α-L-arabinopyranoside]: the figures for the IC50 (in series [1] (setting [3]); in the series with BV2 microglia) were above 100 µM and 124 ± 10.6 µM, respectively. For `CC1(C)CC[C@]2(C(=O)O)CC[C@]3(C)C(=CC[C@@H]4[C@@]5(C)CC[C@H](O[C@@H]6O[C@H](C(=O)O)[C@@H](O)[C@H](O)[C@H]6O)C(C)(C)[C@@H]5CC[C@]43C)[C@@H]2C1` [Compound 8, oleanolic acid 3-O-β-D-glucuronopyranoside], the 50% inhibitory concentration (IC50) was above 100 µM in series [1] (setting [3]) and 107 ± 9.59 µM in the series on BV2 microglia. On to `CC1(C)CC[C@]2(C(=O)O)CC[C@]3(C)C(=CC[C@@H]4[C@@]5(C)CCC(O[C@@H]6O[C@H](C(=O)O)[C@@H](O)[C@H](O)[C@H]6O)[C@@](C)(C=O)[C@@H]5CC[C@]43C)C2C1` (stereo partly shown) [Compound 11, gypsogenin 3-O-glucuronide], for which the IC50 in series [1] (setting [3]) is above 100 µM; in the series with BV2 microglia, 402 ± 39.5 µM. On to `C[C@@H]1O[C@@H](O[C@H]2[C@H](O[C@H]3CC[C@]4(C)[C@H]5CC=C6[C@@H]7CC(C)(C)CC[C@]7(C(=O)O)CC[C@@]6(C)[C@]5(C)CC[C@H]4C3(C)C)OC[C@H](O)[C@@H]2O)[C@H](O)[C@H](O)[C@H]1O` [Compound 18, 3-O-[α-L-rhamnopyranosyl-(1→2)-α-L-arabinopyranosyl] oleanolic acid], for which the IC50 is above 100 µM in series [1] (setting [3]) and 204 ± 19.8 µM in the series with BV2 microglia.

In the case of `CC1(C)CC[C@]2(C(=O)O[C@@H]3O[C@H](CO)[C@@H](O)[C@H](O)[C@H]3O)CC[C@]3(C)C(=CC[C@@H]4[C@@]5(C)CC[C@H](O[C@@H]6OC[C@H](O)[C@H](O)[C@H]6O)[C@@](C)(CO)[C@@H]5CC[C@]43C)[C@@H]2C1` [Compound 19, HN-saponin F], the figures for the concentration for half-maximal inhibition (IC50) (in series [1] (setting [3]); in the series on BV2 microglia) were above 100 µM and 466 ± 35.1 µM, respectively.

For the compound `CC1(C)CC[C@]2(C(=O)O)CC[C@]3(C)C(=CC[C@@H]4[C@@]5(C)CC[C@H](O[C@@H]6OC[C@H](O)[C@H](O)[C@H]6O[C@@H]6O[C@H](CO)[C@@H](O)[C@H](O)[C@H]6O)C(C)(C)[C@@H]5CC[C@]43C)[C@@H]2C1` [Compound 20, saponin PE], the IC50 was above 100 µM in series [1] (setting [3]) and 136 ± 10.6 µM with BV2 microglia. As for `CC1(C)CCC2(C(=O)O)CCC3(C)C(=CCC4C5(C)CCC(OC6OCC(O)C(OC7OC(CO)C(O)C(O)C7O)C6O)C(C)(C)C5CCC43C)C2C1` [Compound 21, oleanolic acid 3-O-β-D-glucopyranosyl (1→3)-α-L-arabinopyranoside], the IC50 in the series with BV2 microglia worked out at 306 ± 28 µM. For `CC1(C)CC[C@]2(C(=O)O)CC[C@]3(C)C(=CC[C@@H]4[C@@]5(C)CC[C@H](O[C@@H]6O[C@H](CO)[C@@H](O)[C@H](O)[C@H]6O[C@@H]6O[C@H](CO)[C@@H](O)[C@H](O)[C@H]6O)C(C)(C)[C@@H]5CC[C@]43C)[C@@H]2C1` [Compound 24, 3-O-β-D-glucopyranosyl-(1→2)-β-D-glucopyranosyl oleanolic acid], the IC50 in series [1] (setting [3]) was above 100 µM; in the series with BV2 microglia it was 189 ± 15.2 µM. `CC1OC(OC2C(OC3CCC4(C)C(CCC5(C)C4CC=C4C6CC(C)(C)CCC6(C(=O)OC6OC(CO)C(O)C(O)C6O)CCC45C)C3(C)C)OCC(O)C2O)C(O)C(O)C1O` [Compound 26, oleanolic acid 3-O-α-L-rhamnopyranosyl(1→2)-α-L-arabinopyranosyl-28-O-β-D-glucopyranosyl ester]: the half-maximal inhibitory concentration (IC50) in the series with BV2 microglia turned out to be 160 ± 13.5 µM. For `O=c1c(O)c(-c2ccc(O)c(O)c2)oc2cc(O)cc(O)c12` [Quercetin, reference compound], the IC50 in series [1] (Mus musculus, BV-2) was determined as 10.5 ± 1.07 µM. As for HN-saponin D1 [Compound 6], the IC50 in series [1] (setting [3]) was above 100 µM; with BV2 microglia, 108 ± 8.24 µM.

Take HN-saponin K [Compound 9]: the IC50 in series [1] (setting [3]) was above 100 µM; in the series on BV2 microglia, 241 ± 18.6 µM.

For the compound elatoside G [Compound 12], in series [1], the “Inhibitory effect” value is recorded as “moderate inhibitory effects on neuroinflammation”. In the series on BV2 microglia, the IC50 was found to be 264 ± 22.9 µM. For “hederagenin-3-O-β-D- glucuronopyranoside 6′-O-methyl ester [Compound 13]”, the “Inhibitory effect” value in series [1] is “moderate inhibitory effects on neuroinflammation”.

Regarding lucyoside F [Compound 22], the IC50 was above 100 µM in series [1] (setting [3]) and 146 ± 12.7 µM with BV2 microglia. Take lucyoside H [Compound 23]: the IC50 in series [1] (setting [3]) is above 100 µM; with BV2 microglia, 131 ± 10 µM. On to paritriside E [Compound 27], for which the IC50 is above 100 µM in series [1] (setting [3]) and 133 ± 11.8 µM in the series with BV2 microglia. For “tragopogonsaponin A methyl ester [Compound 14]”, in that order: above 100 µM and 585 ± 45.6 µM.

What is called IC50 is the concentration needed to halve the response being measured.
